In US20170312205A1, “USE OF ESTERS OF N-ACYLATED DERIVATIVES OF AMINO ACIDS AND POLYOLS AS AN ANTI-AGEING AGENT FOR HUMAN SKIN” (SOCIETE D'EXPLOITATION DE PRODUITS POUR LES INDUSTRIES …, priority 2014, published 2017):

Test system: normal human fibroblasts
Assay: in vitro study of migration of human fibroblasts (Oris migration plates, Calcein AM labeling)
Format: cell-based
Details: for mean migration distance of the cells (Dmigr): 40 hours incubation at 37° C., mitomycin C pretreated, quadruplicate; for [(Dmigr) − (Dmigr)control]/(Dmigr)control (percentage of migratory effect relative to the control): 40 hours incubation, vs FCS culture control
From the text: The fibroblast migration test is a test commonly used in the cosmetics and pharmaceutical sector and is especially described in the international patent application published under the number WO 2010/056908 A1. It allows in vitro reproduction of the phenomenon of fibroblast migration; a decrease in the migratory capacities of the fibroblasts being reported as associated with aging of the skin (1) (4).
Normal human fibroblasts at the R5 passage were amplified in a T75 culture flask and then inoculated at 25 000 cells/well in specific culture plates. These plates are dedicated to migration (Oris™ from Platypus), integrating a central zone without initial deposition of cells (stoppers). After 96 hours of plate amplification and 2 hours before the treatment, all the wells were treated with mitomycin C (2 hours at […]), so as to stop the cell proliferation, and thus to observe only the migration phenomenon. The stoppers were removed, and the references, the products or standard medium for fibroblasts containing 2% fetal calf serum (FCS) were applied to the cells under 100 μl, and then incubated for 40 hours at 37° C. under 5% CO2. Each condition was performed in quadruplicate.
On conclusion of the incubation, the cells were labeled with Calcein AM (5 μM, 20 minutes at 37° C.), so as to visualize the viable cells by fluorescence (revelation of the cytoplasm). Photos were taken, after having inserted a black screen under the culture plates, so as to visualize only the zone where the cells were not deposited. Thus, only the cells which had migrated were photographed (×4 objective lens; with a ×0.7 reducer on the camera adapter). The mean migration distance of the cells (Dmigr) was measured with NIS-Elements-BR 3.0 (4 cells). The means and standard deviations of the distances were calculated on the quadruplicates. The percentages of migratory effect relative to the control, and also the statistics (Student test) were also calculated.

## Epidermal Growth Factor [Epidermal Growth Factor (EGF)]
EGF 10 ng/ml
  mean migration distance of the cells (Dmigr): 203 ± 20 μm
  [(Dmigr) − (Dmigr)control]/(Dmigr)control (percentage of migratory effect relative to the control): +21%
EGF 50 ng/ml
  mean migration distance of the cells (Dmigr): 212 ± 8 μm
  [(Dmigr) − (Dmigr)control]/(Dmigr)control (percentage of migratory effect relative to the control): +26%
EGF at 10 and 50 ng/ml with normal human fibroblasts, validates the model
  migration distance of the fibroblasts (result in words): increase in the migration distance
